# Columns and labels:
# [1] = target: falcipain-2 (Plasmodium falciparum (isolate 3D7), UniProt Q8I6U4); assay: Fluorometric assay for falcipain-2 activity; format: biochemical
# Experimental: Recombinant falcipain-2 was prepared according to the method described by Shenai et al. (J Biol Chem.; 2000, 275(37): 29000-10) and Kumar et al. (Biochem Biophys. Res Commun. 2004, 317(1), 38-45) with slight modification. Briefly, Escherichia coli M15 containing pQE30-FP-2 plasmid were grown to mid-log phase and induced with isopropyl-1-thio-b-D-galactopyranoside (IPTG, 0.5 mM) for 5 h at 37° C. Cells were harvested, washed with ice-cold 100 mM Tris-Cl, 10 mM EDTA, pH 7.4, sonicated (12 cycles of 10 s each, with cooling for 10 s between the cycles), and centrifuged at 15,000 rpm for 45 min at 4° C. The pellet was washed twice with 2.5 M urea, 20 mM Tris-Cl2.5% Triton X-100, pH 8.0; centrifuged at 15,000 rpm for 45 min at 4° C.; and solubilized in 6 M guanidine HCl, 20 mM Tris-Cl, 250 mM NaCl, 20 mM imidazole, pH 8.0 (5 ml/g of inclusion body pellet) at RT for 60 min with gentle stirring. Insoluble material was separated by centrifuging at 15,000 rpm for 60 min at 4° C. For the purification of the recombinant protein, the supernatant was incubated overnight at 4° C. with a nickel-nitrilotriacetic acid (Ni-NTA) resin. The resin was loaded on a column and washed with 10 bed volumes each of 6 M guanidine HCl, 20 mM Tris-Cl, 250 mM NaCl, pH 8.0; 8 M urea, 20 mM Tris-Cl, 500 mM NaCl, pH 8.0; and 8 M urea, 20 mM Tris-Cl, 30 mM imidazole, pH 8.0. Bound protein was eluted with 8 M urea, 20 mM Tris-Cl, 1 M imidazole, pH 8.0 and quantified by the Biocinchoninic acid assay. For the refolding, the fractions containing falcipain-2 protein were pooled in ice-cold refolding buffer: 100 mM diluted in Tris-Cl, 1 mM EDTA, 20% glycerol, 250 mM L-arginine, 1 mM GSH, 1 mM GSSG, pH 8.0 was added in a 100 fold dilution. The mixture was incubated with moderate stirring at 4° C. for 24 h, and concentrated to 25 ml using a stirred cell with a 10-kDa cut-off membrane (Pellicon XL device, Millipore) at 4° C. […] The purified and concentrated protein was quantified using Biocinchoninic acid assay. • b) Fluorometric Assay for Falcipain-2 activity:
# For screening of falcipain-2 inhibitors, a 96-well plate fluorometric assay was developed following a protocol described by Kumar et al. (Biochem Biophys Res Commun.; 2004, 317(1), 38-45) Briefly, reaction was set up in a 200 ml reaction mixture containing 100 mM NaOAc, 10 mM DTT, 6 mg enzyme and different concentrations of inhibitors, pH 5.5. 10 mM of fluorogenic substrate benzyloxycarbonyl-Phe-Arg-7-amino-4-methylcoumarin hydrochloride (ZFR-AMC) was added, and the release of 7-amino-4-methylcoumarin (AMC) was monitored (excitation 355 nm; emission 460 nm) over 30 min at RT in Perkin Elmer Victor3 multi-label counter. […] The IC50 values were calculated from curve fittings by software Workout V 2.5.
# [2] = test system: P. falciparum 3D7; assay: P. falciparum growth inhibition assay, 3D7 strain; format: cell-based; conditions: Plasmodium falciparum, 3D7, 48 h, read-out: EC50 on P. falciparum 3D7
# Experimental: P. falciparum strain 3D7, Dd2 and 7G8 were cultured in RPMI media (Invitrogen) supplemented with 0.5% albumax and 4% haematocrit using a protocol described previously [Trager and Jensen (Science,1976; 193:673-675)]. Cultures were synchronized by repeated sorbitol treatment following Lambros and Vanderberg (J Parasitol; 1979; 65:418-420). Each growth inhibition assay was performed in triplicate and the experiment was repeated twice. Each well contained 0.5 ml of complete media [RPMI (invitrogen) with 0.5% albumax], 4% haematocrit and the parasitaemia adjusted to ˜1%; the compound added to the parasite cultures to desired final concentrations (0-100 µM) and same amount of solvent (DMSO) was added to the control wells. The cultures were allowed to grow further for 48 h. Parasite growth was assessed by DNA fluorescent dye-binding assay using SYBR green (Sigma) following Smilkstein et al (Antimicrob Agents Chemother.; 2004, 48, 1803-1806). • f) In Vitro Toxicity Assay on CHO Cells
# [3] = test system: P. berghei; assay: In vivo parasiticidal assay with P. berghei mice malaria model
# Experimental: Five groups of female BALB/c mice, 6-8 weeks of age (four mice/group) were used for testing the in vivo parsiticidal and protective efficacy of different drug treatments. Mice were injected IP with 1×10^6 P. berghei infected erythrocytes. The drug treatment was initiated 5 days after inducing parasitemia; mice in a group were given 4 doses of a compound at 12.5 mg/Kg of body weight. Control mice were given solvent alone. The parasitemia was assessed everyday in thin smears of Giemsa stained RBCs from tail blood of each mouse, by counting parasitized erythrocytes in more than 10,000 erythrocytes. Time of death of the mice in each group was also monitored.
# [4] = test system: A549 human cells; assay: In vitro toxicity on mammalian cell culture; format: cell-based
# [5] = 4 doses of 12.5 mg/Kg of body weight, infected BALB/c mice
# Sequence of falcipain-2 (Q8I6U4 244-484 limits assumed): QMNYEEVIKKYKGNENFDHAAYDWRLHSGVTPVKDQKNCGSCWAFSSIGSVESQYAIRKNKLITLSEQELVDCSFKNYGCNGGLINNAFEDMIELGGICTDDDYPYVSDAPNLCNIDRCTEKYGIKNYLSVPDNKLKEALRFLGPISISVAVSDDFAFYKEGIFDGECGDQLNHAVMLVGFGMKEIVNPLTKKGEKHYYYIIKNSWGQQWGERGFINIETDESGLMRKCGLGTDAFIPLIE
smiles,measurement,setting,value
"CCOP(=O)(/C=C/C(NC(=O)[C@H](CO[C@H]1O[C@@H]2O[C@@]3(C)CC[C@H]4[C@H](C)CC[C@@H]([C@H]1C)[C@@]24OO3)NC(=O)OCc1ccccc1)c1ccccc1)OCC (mixture of isomers) [Compound 1, Benzyl ((2S)-1-(((E)-3-(diethoxyphosphoryl)-1-phenylallyl)amino)-1-oxo-3-(((3R,5aS,6R, 8aS,9R,10S,12R,12aR)-3,6,9-trimethyldecahydro-12H-3,12-epoxy[1,2]dioxepino[4,3-i]isochromen-10-yl)oxy)propan-2-yl)carbamate]",IC50,[1],> 100000 nM
same,activity against falcipain-2 enzyme (in words),[1],inactive
"CCOP(=O)(/C=C/[C@@H](NC(=O)[C@H](CC(C)C)NC(=O)[C@H](CO[C@H]1O[C@@H]2OC3(C)CC[C@H]4[C@H](C)CC[C@@H]([C@H]1C)[C@@]24OO3)NC(=O)OCc1ccccc1)c1ccccc1)OCC (stereo in doubt) [Compound 3a, Benzyl ((S)-1-(((S)-1-(((R,E)-3-(diethoxyphosphoryl)-1-phenylallyl)amino)-4-methyl-1-oxopentan-2-yl)amino)-1-oxo-3-(((3R,5aS,6R,8aS,9R,10S,12R,12aR)-3,6,9-trimethyldeca hydro-12H-3,12-epoxy[1,2]dioxepino[4,3-i]isochromen-10-yl)oxy)propan-2-yl)carbamate]",EC50,[2],10.9 nM
"CCOP(=O)(/C=C/[C@H](NC(=O)[C@H](CC(C)C)NC(=O)[C@H](CO[C@H]1O[C@@H]2OC3(C)CC[C@H]4[C@H](C)CC[C@@H]([C@H]1C)[C@@]24OO3)NC(=O)OCc1ccccc1)c1ccccc1)OCC (stereo in doubt) [Compound 3b, Benzyl ((S)-1-(((S)-1-(((S,E)-3-(diethoxyphosphoryl)-1-phenylallyl)amino)-4-methyl-1-oxopentan-2-yl)amino)-1-oxo-3-(((3R,5aS,6R,8aS,9R,10S,12R,12aR)-3,6,9-trimethyldeca hydro-12H-3,12-epoxy[1,2]dioxepino[4,3-i]isochromen-10-yl)oxy)propan-2-yl)carbamate]",EC50,[2],16.7 nM
"CCOP(=O)(/C=C/C(NC(=O)[C@@H]1C[C@@H](O[C@H]2O[C@@H]3OC4(C)CC[C@H]5[C@H](C)CC[C@@H]([C@H]2C)[C@@]35OO4)CN1C(=O)OCc1ccccc1)c1ccccc1)OCC (stereo in doubt) [Compound 4, Benzyl (2S,4R)-2-(((E)-3-(diethoxyphosphoryl)-1-phenylallyl)carbamoyl)-4-(((3R,5aS, 6R,8aS,9R,10S,12R,12aR)-3,6,9-trimethyldecahydro-12H-3,12-epoxy[1,2]dioxepino[4,3-i]isochromen-10-yl)oxy)pyrrolidine-1-carboxylate]",activity against falcipain-2 enzyme (in words),[1],inactive
"CCOP(=O)(/C=C/[C@@H](NC(=O)[C@H](CC(C)C)NC(=O)[C@@H]1C[C@@H](O[C@H]2O[C@@H]3OC4(C)CC[C@H]5[C@H](C)CC[C@@H]([C@H]2C)[C@@]35OO4)CN1C(=O)OCc1ccccc1)c1ccccc1)OCC (stereo in doubt) [Compound 5a, Benzyl (2S,4R)-2-(((S)-1-(((R,E)-3-(diethoxyphosphoryl)-1-phenylallyl)amino)-4-methyl-1-oxopentan-2-yl)carbamoyl)-4-(((3R,5aS,6R,8aS,9R,10S,12R,12aR)-3,6,9-trimethyldeca hydro-12H-3,12-epoxy[1,2]dioxepino[4,3-i]isochromen-10-yl)oxy)pyrrolidine-1-carboxylate]",EC50,[2],1.04 nM
"CCOP(=O)(/C=C/[C@H](NC(=O)[C@H](CC(C)C)NC(=O)[C@@H]1C[C@@H](O[C@H]2O[C@@H]3OC4(C)CC[C@H]5[C@H](C)CC[C@@H]([C@H]2C)[C@@]35OO4)CN1C(=O)OCc1ccccc1)c1ccccc1)OCC (stereo in doubt) [Compound 5b, Benzyl (2S,4R)-2-(((S)-1-(((S,E)-3-(diethoxyphosphoryl)-1-phenylallyl)amino)-4-methyl-1-oxopentan-2-yl)carbamoyl)-4-(((3R,5aS,6R,8aS,9R,10S,12R,12aR)-3,6,9-trimethyldeca hydro-12H-3,12-epoxy[1,2]dioxepino[4,3-i]isochromen-10-yl)oxy)pyrrolidine-1-carboxylate]",EC50,[2],6.12 nM
"CCOP(=O)(/C=C/C(NC(=O)[C@H](Cc1ccccc1)NC(=O)[C@@H]1C[C@@H](O[C@H]2O[C@@H]3OC4(C)CC[C@H]5[C@H](C)CC[C@@H]([C@H]2C)[C@@]35OO4)CN1C(=O)OCc1ccccc1)c1ccccc1)OCC (stereo in doubt) [Compound 6, Benzyl (2S,4R)-2-(((2S)-1-(((E)-3-(diethoxyphosphoryl)-1-phenylallyl)amino)-1-oxo-3-phenylpropan-2-yl)carbamoyl)-4-(((3R,5aS,6R,8aS,9R,10S,12R,12aR)-3,6,9-trimethyldecahydro-12H-3,12-epoxy[1,2]dioxepino[4,3-i]isochromen-10-yl)oxy)pyrrolidine-1-carboxylate]",activity against falcipain-2 enzyme (in words),[1],inactive
"CCOP(=O)(/C=C/C(NC(=O)[C@H](Cc1ccccc1)NC(=O)[C@H](CO[C@H]1O[C@@H]2O[C@@]3(C)CC[C@H]4[C@H](C)CC[C@@H]([C@H]1C)[C@@]24OO3)NC(=O)OCc1ccccc1)c1ccccc1)OCC (stereo partly drawn) [Compound 2, Benzyl ((2S)-1-(((2S)-1-(((E)-3-(diethoxyphosphoryl)-1-phenylallyl)amino)-1-oxo-3-phenylpropan-2-yl)amino)-1-oxo-3-(((3R,5aS,6R,8aS,9R,10S,12R,12 aR)-3,6,9-trimethyldeca hydro-12H-3,12-epoxy[1,2]dioxepino[4,3-i]isochromen-10-yl)oxy)propan-2-yl)carbamate]",protection in treated group of mice,[3]; 12.5 mg/kg of body weight,100%
same,Complete Protection - Mice with complete parasite clearance,[3]; [5],80% of treated mice
same,Survival after treatment,[3]; [5],>60 days
same,in vitro toxicity on A549 human cells (in words),[4],non-toxic
"CCOP(=O)(/C=C/[C@@H](NC(=O)[C@H](Cc1ccccc1)NC(=O)[C@H](CO[C@H]1O[C@@H]2O[C@@]3(C)CC[C@H]4[C@H](C)CC[C@@H]([C@H]1C)[C@@]24OO3)NC(=O)OCc1ccccc1)c1ccccc1)OCC [Compound 2a, Benzyl ((S)-1-(((S)-1-(((R,E)-3-(diethoxyphosphoryl)-1-phenylallyl)amino)-1-oxo-3-phenylpropan-2-yl)amino)-1-oxo-3-(((3R,5aS,6R,8aS,9R,10S,12R,12aR)-3,6,9-trimethyldeca hydro-12H-3,12-epoxy[1,2]dioxepino[4,3-i]isochromen-10-yl)oxy)propan-2-yl)carbamate]",EC50,[2],0.95 nM
"CCOP(=O)(/C=C/[C@H](NC(=O)[C@H](Cc1ccccc1)NC(=O)[C@H](CO[C@H]1O[C@@H]2O[C@@]3(C)CC[C@H]4[C@H](C)CC[C@@H]([C@H]1C)[C@@]24OO3)NC(=O)OCc1ccccc1)c1ccccc1)OCC [Compound 2b, Benzyl ((S)-1-(((S)-1-(((S,E)-3-(diethoxyphosphoryl)-1-phenylallyl)amino)-1-oxo-3-phenylpropan-2-yl)amino)-1-oxo-3-(((3R,5aS,6R,8aS,9R,10S,12R,12aR)-3,6,9-trimethyldeca hydro-12H-3,12-epoxy[1,2]dioxepino[4,3-i]isochromen-10-yl)oxy)propan-2-yl)carbamate]",EC50,[2],2.03 nM

# Source: patent US11365202B2, “Antimalarial compounds, process for preparation and their use for drug resistant malaria” (Council of Scientific and Industrial Research, priority 2018, dated 2022)
